Test results: paper PMC3973950, “Synthesis of 5-arylidine amino-1,3,4-thiadiazol-2-[(N-substituted benzyol)]sulphonamides endowed with potent antioxidants and anticancer activity induces growth inhibition in HEK293, BT474 and NCI-H226 cells” (Medicinal Chemistry Research, 2013)

Columns and labels:
[1] = In vitro cytotoxicity by MTT assay, HEK 293; assay type: cell-based, human; settings: human, HEK 293 cells, read-out: % cytotoxicity (100 − % cell survival) of HEK 293 cell line
How it was run: (§1)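 Cells seeded at ~10,000/well in RPMI-1640 with 10 % newborn calf serum, grown 24 h, then exposed to compounds for 72 h at 37 °C, 5 % CO2. Viability read by MTT (4 h), formazan dissolved in propanol, absorbance at 490 nm.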

[2] = test system: BT474 (breast cancer cell line); assay: In vitro cytotoxicity by MTT assay, BT474; assay type: cell-based; settings: Homo sapiens, 72 h, read-out: % cytotoxicity (100 − % cell survival) of BT474 cell line; for cytotoxicity at 0.005 µM: BT-474, 0.005 μM; for cytotoxicity at 0.015 µM: BT-474, 0.015 μM; for cytotoxicity at 0.045 µM: BT-474, 0.045 μM; for cytotoxicity at 0.13 µM: BT-474, 0.13 μM; for cytotoxicity at 0.41 µM: BT-474, 0.41 μM; for cytotoxicity at 1.23 µM: BT-474, 1.23 μM; for cytotoxicity at 3.7 µM: BT-474, 3.7 μM; for cytotoxicity at 11.11 µM: BT-474, 11.11 μM; for cytotoxicity at 33.33 µM: BT-474, 33.33 μM; for cytotoxicity at 100 µM: BT-474, 100 μM
How it was run: as §1

[3] = In vitro cytotoxicity by MTT assay, NCI-H226; assay type: cell-based; settings: human, NCI-H226 lung cancer cells, 0.015 μM, read-out: % Cytotoxicity (100 − % cell survival) of NCI-H226 cell line
How it was run: as §1

[4] = test system: NCI-H226 (lung cancer cell line); assay: In vitro cytotoxicity by MTT assay, NCI-H226; assay type: cell-based; settings: Homo sapiens, 72 h, read-out: % Cytotoxicity (100 − % cell survival) of NCI-H226 cell line; for cytotoxicity at 0.005 µM: NCI-H226, 0.005 μM; for cytotoxicity at 0.045 µM: NCI-H226, 0.045 μM; for cytotoxicity at 0.13 µM: NCI-H226, 0.13 μM; for cytotoxicity at 0.41 µM: NCI-H226, 0.41 μM; for cytotoxicity at 1.23 µM: NCI-H226, 1.23 μM; for cytotoxicity at 3.7 µM: NCI-H226, 3.7 μM; for cytotoxicity at 11.11 µM: NCI-H226, 11.11 μM; for cytotoxicity at 33.33 µM: NCI-H226, 33.33 μM; for cytotoxicity at 100 µM: NCI-H226, 100 μM
How it was run: as §1

Row | Structure (SMILES) | cytotoxicity at 72 h, 0.005 µM [1] | cytotoxicity at 72 h, 0.015 µM [1] | cytotoxicity at 72 h, 0.045 µM [1] | cytotoxicity at 72 h, 0.13 µM [1] | cytotoxicity at 72 h, 0.41 µM [1] | cytotoxicity at 72 h, 1.23 µM [1] | cytotoxicity at 72 h, 3.7 µM [1] | cytotoxicity at 72 h, 11.11 µM [1] | cytotoxicity at 72 h, 33.33 µM [1] | cytotoxicity at 72 h, 100 µM [1] | cytotoxicity at 0.005 µM [2] | cytotoxicity at 0.015 µM [2] | cytotoxicity at 0.045 µM [2] | cytotoxicity at 0.13 µM [2] | cytotoxicity at 0.41 µM [2] | cytotoxicity at 1.23 µM [2] | cytotoxicity at 3.7 µM [2] | cytotoxicity at 11.11 µM [2] | cytotoxicity at 33.33 µM [2] | cytotoxicity at 100 µM [2] | also measured
1 | CC(=O)Nc1ccc(S(=O)(=O)Nc2nnc(S(=O)(=O)NC(=O)c3ccccc3O)s2)cc1 [Compound 6d] | 33.3% | 34.8% | 35.1% | 35.9% | 36.7% | 37.2% | 38.4% | 39.3% | 40.7% | 41.3% | 26.3% | 27.7% | 28.9% | 29.4% | 30.6% | 31% | 32.1% | 32.9% | 33.3% | 33.9% | cytotoxicity at 72 h, 0.015 µM [3]: 36.4%; cytotoxicity at 0.005 µM [4]: 35.5%; cytotoxicity at 0.045 µM [4]: 37%; cytotoxicity at 0.13 µM [4]: 39.1%; cytotoxicity at 0.41 µM [4]: 41.2%; cytotoxicity at 1.23 µM [4]: 42%; cytotoxicity at 3.7 µM [4]: 43.4%; cytotoxicity at 11.11 µM [4]: 45.3%; cytotoxicity at 33.33 µM [4]: 47.3%; cytotoxicity at 100 µM [4]: 49.1%
2 | CC(=O)Nc1ccc(S(=O)(=O)Nc2nnc(S(=O)(=O)NC(=O)c3ccccc3)s2)cc1 [Compound 6a] | 26.5% | 26.8% | 28.2% | 29.9% | 30.1% | 32.2% | 33.6% | 35% | 35.2% | 35.4% | 26% | 27.2% | 28% | 28.6% | 29.8% | 30.4% | 30.9% | 31.3% | 32.1% | 32.7% | cytotoxicity at 72 h, 0.015 µM [3]: 31.6%; cytotoxicity at 0.005 µM [4]: 30.5%; cytotoxicity at 0.045 µM [4]: 32.2%; cytotoxicity at 0.13 µM [4]: 32.9%; cytotoxicity at 0.41 µM [4]: 33.6%; cytotoxicity at 1.23 µM [4]: 35.6%; cytotoxicity at 3.7 µM [4]: 36%; cytotoxicity at 11.11 µM [4]: 38.2%; cytotoxicity at 33.33 µM [4]: 38.9%; cytotoxicity at 100 µM [4]: 40.9%
3 | Nc1ccc(S(=O)(=O)Nc2nnc(S(=O)(=O)NC(=O)c3ccc(Cl)cc3)s2)cc1 [Compound 7g] | 29.1% | 31.2% | 33.3% | 35.1% | 35.9% | 36.5% | 37.2% | 38.1% | 40.3% | 42.9% | 27.3% | 28.4% | 30% | 31.3% | 32.7% | 33.2% | 34.7% | 37.7% | 38.5% | 40.1% | cytotoxicity at 72 h, 0.015 µM [3]: 32.8%; cytotoxicity at 0.005 µM [4]: 30.7%; cytotoxicity at 0.045 µM [4]: 33.6%; cytotoxicity at 0.13 µM [4]: 35.3%; cytotoxicity at 0.41 µM [4]: 35.7%; cytotoxicity at 1.23 µM [4]: 36.1%; cytotoxicity at 3.7 µM [4]: 36.3%; cytotoxicity at 11.11 µM [4]: 37.1%; cytotoxicity at 33.33 µM [4]: 38.7%; cytotoxicity at 100 µM [4]: 39%
4 | Nc1ccc(S(=O)(=O)Nc2nnc(S(=O)(=O)NC(=O)c3ccccc3O)s2)cc1 [Compound 7d] | 18.9% | 19.9% | 20.3% | 22.2% | 24.1% | 25.3% | 26.6% | 27.2% | 29% | 29.6% | 28.5% | 29.3% | 30.6% | 31.9% | 33.1% | 34.4% | 35.7% | 36.1% | 38% | 38.9% | cytotoxicity at 72 h, 0.015 µM [3]: 34.1%; cytotoxicity at 0.005 µM [4]: 33.7%; cytotoxicity at 0.045 µM [4]: 34.6%; cytotoxicity at 0.13 µM [4]: 35.2%; cytotoxicity at 0.41 µM [4]: 35.7%; cytotoxicity at 1.23 µM [4]: 35.4%; cytotoxicity at 3.7 µM [4]: 36%; cytotoxicity at 11.11 µM [4]: 37.9%; cytotoxicity at 33.33 µM [4]: 38.5%; cytotoxicity at 100 µM [4]: 38.9%
